Here are results for twelve cell lines from the supplement of paper PMC10307832.

Holding throughout (test): relative viability (nuclei count vs DMSO), 5 days (fraction); higher = more cells survive
Compound in experiment [1]: Cc1ccc(NC(=O)c2ccc(CN3CCN(C)CC3)cc2)cc1Nc1nccc(-c2cccnc2)n1 [Imatinib] + N=C(N)NC(=N)NCCc1ccccc1 [Phenformin] (partner 250 µM)
An outline of the steps: (§1)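 Medians of duplicate plates are given as relative viability. That measure is the nuclei count in treated wells divided by the count in vehicle wells. Counts were taken on 4× images of lung cancer cell lines in 1536-well plates, 5 days after pin-tool dosing the day after seeding with one drug alone or a fixed anchor-drug dose plus five library-drug doses (not always all listed) in √10 steps.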

Compound in experiment [2]: Cc1ccc(NC(=O)c2ccc(CN3CCN(C)CC3)cc2)cc1Nc1nccc(-c2cccnc2)n1 [Imatinib] + CC1(C)CCC(c2ccc(Cl)cc2)=C(CN2CCN(c3ccc(C(=O)NS(=O)(=O)c4ccc(N[C@H](CCN5CCOCC5)CSc5ccccc5)c(S(=O)(=O)C(F)(F)F)c4)cc3)CC2)C1 [Navitoclax] (partner 0.5 µM)
An outline of the steps: as §1

Compound in experiment [3]: Cc1ccc(NC(=O)c2ccc(CN3CCN(C)CC3)cc2)cc1Nc1nccc(-c2cccnc2)n1 [Imatinib] + CC(=O)c1c(C)c2cnc(Nc3ccc(N4CCNCC4)cn3)nc2n(C2CCCC2)c1=O [Palbociclib] (partner 0.5 µM)
Put shortly:
as §1

Compound in experiment [4]: Cc1ccc(NC(=O)c2ccc(CN3CCN(C)CC3)cc2)cc1Nc1nccc(-c2cccnc2)n1 [Imatinib] + NC(=O)Nc1cc(-c2cccc(F)c2)sc1C(=O)N[C@H]1CCCNC1 [AZD7762] (partner 0.2 µM)
An outline of the steps: as §1

Consider NCI-H520, for which the relative viability is 0.695 in experiment [1] (first compound 0.02 µM); 0.823 in experiment [1] (first compound 0.06325 µM); 0.545 in experiment [1] (first compound 0.2 µM); 0.568 in experiment [1] (first compound 0.6325 µM); 0.497 in experiment [1] (first compound 2 µM); 1.24 in experiment [2] (first compound 0.02 µM). For the same cell line, the relative viability amounted to 1.14 in experiment [2] (first compound 0.06325 µM); 1.18 in experiment [2] (first compound 0.2 µM); 1.04 in experiment [2] (first compound 0.6325 µM); 1.12 in experiment [2] (first compound 2 µM); 0.25 in experiment [3] (first compound 0.02 µM); 0.21 in experiment [3] (first compound 0.06325 µM). For the same cell line, the relative viability in experiment [3] (first compound 0.2 µM) was 0.198; in experiment [3] (first compound 0.6325 µM), 0.242; in experiment [3] (first compound 2 µM) it was 0.213.

Consider NCI-H1703, for which the relative viability came to 1.39 in experiment [2] (first compound 0.02 µM); 1.12 in experiment [2] (first compound 0.06325 µM); 0.586 in experiment [2] (first compound 0.2 µM); 0.383 in experiment [2] (first compound 0.6325 µM); 0.238 in experiment [2] (first compound 2 µM); 0.135 in experiment [4] (first compound 0.02 µM). Moreover, the relative viability came out at 0.103 in experiment [4] (first compound 0.2 µM), 0.124 in experiment [4] (first compound 0.6325 µM) and 0.114 in experiment [4] (first compound 2 µM).

As for NCI-H2342, the relative viability was determined as 0.633 in experiment [1] (first compound 0.02 µM); 0.57 in experiment [1] (first compound 0.06325 µM); 0.587 in experiment [1] (first compound 0.2 µM); 0.573 in experiment [1] (first compound 0.6325 µM); 0.561 in experiment [1] (first compound 2 µM); 0.434 in experiment [4] (first compound 0.02 µM). Besides, the relative viability in experiment [4] (first compound 0.06325 µM) stood at 0.493; in experiment [4] (first compound 0.2 µM), 0.443; in experiment [4] (first compound 0.6325 µM), 0.455; in experiment [4] (first compound 2 µM), 0.553; in experiment [3] (first compound 0.02 µM), 0.506; in experiment [3] (first compound 0.06325 µM), 0.586. Further, the relative viability in experiment [3] (first compound 0.2 µM) was determined as 0.504; in experiment [3] (first compound 0.6325 µM), 0.503; in experiment [3] (first compound 2 µM), 0.539.

With NCI-H2228, the relative viability in experiment [1] (first compound 0.02 µM) is 0.335; in experiment [1] (first compound 0.2 µM) it was 0.268; in experiment [1] (first compound 0.6325 µM) it was 0.277; in experiment [1] (first compound 2 µM), 0.272; in experiment [2] (first compound 0.02 µM) it was 0.982; in experiment [2] (first compound 0.06325 µM), 0.891. Moreover, the relative viability was found to be 1.11 in experiment [2] (first compound 0.2 µM); 0.922 in experiment [2] (first compound 0.6325 µM); 0.955 in experiment [2] (first compound 2 µM); 1.06 in experiment [3] (first compound 0.02 µM); 0.73 in experiment [3] (first compound 0.06325 µM); 0.664 in experiment [3] (first compound 0.2 µM). Further, the relative viability in experiment [3] (first compound 0.6325 µM) stood at 0.916; in experiment [3] (first compound 2 µM) it was 0.697.

For COR-L 105, the relative viability is 0.51 in experiment [1] (first compound 0.02 µM); 0.632 in experiment [1] (first compound 0.06325 µM); 0.453 in experiment [1] (first compound 0.2 µM); 0.497 in experiment [1] (first compound 0.6325 µM); 0.373 in experiment [1] (first compound 2 µM); 1.01 in experiment [2] (first compound 0.02 µM). The relative viability in experiment [2] (first compound 0.06325 µM) turned out to be 0.879; in experiment [2] (first compound 0.2 µM), 0.756; in experiment [2] (first compound 0.6325 µM) it was 0.743; in experiment [2] (first compound 2 µM), 0.605; in experiment [3] (first compound 0.02 µM), 0.425; in experiment [3] (first compound 0.06325 µM) it was 0.367. Moreover, the values for the relative viability in experiment [3] (first compound 0.2 µM), in experiment [3] (first compound 0.6325 µM) and in experiment [3] (first compound 2 µM) were 0.454, 0.395 and 0.428, respectively.

Consider Calu-6, for which the relative viability in experiment [2] (first compound 0.02 µM) was 0.976; in experiment [2] (first compound 0.06325 µM) it was 0.804; in experiment [2] (first compound 0.2 µM), 0.777; in experiment [2] (first compound 0.6325 µM), 0.85; in experiment [2] (first compound 2 µM), 0.814.

Take SK-MES-1: the relative viability in experiment [1] (first compound 0.02 µM) was found to be 0.72; in experiment [1] (first compound 0.06325 µM) it was 0.686; in experiment [1] (first compound 0.2 µM), 0.725; in experiment [1] (first compound 0.6325 µM), 0.619; in experiment [1] (first compound 2 µM), 0.577; in experiment [2] (first compound 0.02 µM), 1.41. Moreover, the relative viability in experiment [2] (first compound 0.06325 µM) came to 1.29; in experiment [2] (first compound 0.2 µM) it was 1.33; in experiment [2] (first compound 0.6325 µM), 1.37; in experiment [2] (first compound 2 µM), 1.44; in experiment [3] (first compound 0.02 µM) it was 0.318; in experiment [3] (first compound 0.06325 µM) it was 0.336. In addition, the relative viability was 0.321 in experiment [3] (first compound 0.2 µM), 0.316 in experiment [3] (first compound 0.6325 µM) and 0.294 in experiment [3] (first compound 2 µM).

With NCI-H2023, the relative viability in experiment [1] (first compound 0.02 µM) was found to be 0.503; in experiment [1] (first compound 0.06325 µM), 0.391; in experiment [1] (first compound 0.2 µM), 0.356; in experiment [1] (first compound 0.6325 µM) it was 0.341; in experiment [1] (first compound 2 µM), 0.342; in experiment [2] (first compound 0.02 µM), 1.08. Moreover, the relative viability in experiment [2] (first compound 0.06325 µM) worked out at 1.23; in experiment [2] (first compound 0.2 µM), 1.12; in experiment [2] (first compound 0.6325 µM), 0.958; in experiment [2] (first compound 2 µM), 0.898; in experiment [3] (first compound 0.02 µM), 0.537; in experiment [3] (first compound 0.06325 µM), 0.494. Besides, the relative viability in experiment [3] (first compound 0.2 µM) was found to be 0.387; in experiment [3] (first compound 2 µM), 0.345.

As to NCI-H1299, the relative viability amounted to 1.02 in experiment [2] (first compound 0.02 µM); 1.11 in experiment [2] (first compound 0.06325 µM); 1.08 in experiment [2] (first compound 0.2 µM); 1.01 in experiment [2] (first compound 0.6325 µM); 1.04 in experiment [2] (first compound 2 µM).

Consider EBC-1, for which the relative viability in experiment [2] (first compound 0.02 µM) was found to be 0.398; in experiment [2] (first compound 0.06325 µM), 0.399; in experiment [2] (first compound 0.2 µM), 0.382; in experiment [2] (first compound 0.6325 µM), 0.327; in experiment [2] (first compound 2 µM), 0.379.

Regarding NCI-H596, the relative viability in experiment [1] (first compound 0.02 µM) is 0.73; in experiment [1] (first compound 0.06325 µM), 0.663; in experiment [1] (first compound 0.2 µM), 0.816; in experiment [1] (first compound 0.6325 µM) it was 0.693; in experiment [1] (first compound 2 µM) it was 0.834; in experiment [2] (first compound 0.02 µM), 1.07. In addition, the relative viability in experiment [2] (first compound 0.06325 µM) amounted to 0.861; in experiment [2] (first compound 0.2 µM), 1; in experiment [2] (first compound 0.6325 µM), 0.876; in experiment [4] (first compound 0.02 µM), 1.21; in experiment [4] (first compound 0.06325 µM) it was 1.03; in experiment [4] (first compound 0.6325 µM), 0.948. The relative viability in experiment [4] (first compound 2 µM) was found to be 1.13.

Take LCLC-103H: the relative viability in experiment [1] (first compound 0.02 µM) came to 0.342; in experiment [1] (first compound 0.06325 µM), 0.325; in experiment [1] (first compound 0.2 µM) it was 0.347; in experiment [1] (first compound 0.6325 µM), 0.316; in experiment [1] (first compound 2 µM), 0.255; in experiment [4] (first compound 0.02 µM), 0.809. Further, the relative viability in experiment [4] (first compound 0.06325 µM) came to 0.779; in experiment [4] (first compound 0.2 µM) it was 0.876; in experiment [4] (first compound 0.6325 µM) it was 0.695; in experiment [4] (first compound 2 µM), 0.781; in experiment [3] (first compound 0.02 µM), 0.465; in experiment [3] (first compound 0.06325 µM), 0.499. Moreover, the relative viability in experiment [3] (first compound 0.2 µM) amounted to 0.457; in experiment [3] (first compound 0.6325 µM), 0.434; in experiment [3] (first compound 2 µM) it was 0.418.
